Experimental data taken from the NIST ThermoML archive (doi:10.1021/acs.jced.6b00355).
± gives the expanded uncertainty stated by the source.

How the values were obtained:
[1] = Molar enthalpy of transition or fusion; conditions: Crystal; DSC
[2] = Crystal; DTA

| Structure (SMILES) | Molar enthalpy of transition or fusion [1] | Normal melting temperature [2] |
| --- | --- | --- |
| CCCCCCCCCCCC(=O)O [dodecanoic acid] | 37.6 ± 0.89 kJ/mol | 44.2 ± 0.7 °C |
| CCCCCCCCCCCCCC(=O)O [tetradecanoic acid] | 44.9 ± 1.1 kJ/mol | 54.5 ± 0.7 °C |
| CCCCCCCCCCCCCCCC(=O)OCC(COC(=O)CCCCCCCCCCCCCCC)OC(=O)CCCCCCCCCCCCCCC [1,2,3-propanetriyl tri(hexadecanoate)] | 181 ± 5.2 kJ/mol | 67.6 ± 0.7 °C |
| CCCCCCCCCCCCCCCCCC(=O)OCC(COC(=O)CCCCCCCCCCCCCCCCC)OC(=O)CCCCCCCCCCCCCCCCC [glycerol trioctadecanoate] | 195 ± 8.6 kJ/mol | 73.5 ± 0.7 °C |
| CCCCCCCCCCCCCCCCCC(=O)O [octadecanoic acid] | 63.3 ± 1.7 kJ/mol | 70.0 ± 0.7 °C |
| CCCCCCCCCCCC(=O)OCC(COC(=O)CCCCCCCCCCC)OC(=O)CCCCCCCCCCC [1,2,3-propanetriyl tridodecanoate] | 127 ± 2.5 kJ/mol | 48.8 ± 0.7 °C |
| CCCCCCCCCCCCCCCC(=O)O [hexadecanoic acid] | 55.8 ± 1.5 kJ/mol | 62.8 ± 0.7 °C |
| CCCCCCCCCCCCCC(=O)OCC(COC(=O)CCCCCCCCCCCCC)OC(=O)CCCCCCCCCCCCC [1,2,3-propanetriyl tri(tetradecanoate)] | 154 ± 6.2 kJ/mol | 58.0 ± 0.7 °C |
| CCCCCCCCCCCCCCCC [hexadecane] |  | 18.2 ± 0.7 °C |
